Measured values published in US20220249606A1, “Method of treatment of degenerative diseases caused by membrane channel-forming peptides fragments” (Zarbio, priority 2021, published 2022).
“Also recorded” adds a separate entry of the source. Read-outs that look alike come from different tables or passages of the source.

Assays:
[1] = Flow cytometric calcium permeabilization of phosphatidylserine liposomes (Fluo-3/DiD); format: biochemical; conditions: for permeabilization of negatively charged (phosphatidylserine) liposomes to calcium: 400 nm liposomes, Fluo-3, flow cytometer
Procedure: (§1) The figure is a composite of data which was presented and analyzed in detail in (Zaretsky and Zaretskaia 2020, Zaretsky and Zaretskaia 2020). Liposomes (400 nm) were made of either phosphatidylserine (A-E, negatively charged lipid) or phosphatidylcholine (F-H, neutral lipid) with added DiD and were extruded in the Ca-free buffer containing 1 mM Fluo-3. After the addition of calcium, aliquots of peptide were added. Ionomycin was used as a positive control. Fluorescence of liposomes was analyzed using a flow cytometer. Each dot at the graph represent a single liposome registered in the flow. The intensity of DiD fluorescence characterizes the amount of membrane material in the liposome, while the fluorescence of Fluo-3 depends on the intraliposomal presence of calcium. […] The liposomes inside rectangle (area R1) are permeabilized, and the number of liposomes which were counted to be within the area is shown.
Liposomes with embedded ion-sensitive probe are used as a test system. Liposomes are extruded from phosphatidylserine containing membrane probe (i.e. DiD) in a calcium-free buffer containing ion-sensitive probe (i.e. Fluo-4) and volume probe (i.e. dextran-tetramethylrhodamin) or membrane probe (DiD). Extravesicular probes are cleared using either centrifugation, or dialysis. After the addition of calcium, the intravesicular calcium-sensing probe remain non-fluorescent because membranes are not permeable to calcium. If membrane channels are formed, calcium enters permeable liposomes, saturates the calcium-sensing dye, so the liposome becomes fluorescent. The number of fluorescent liposomes is an estimate of the number of channel-forming units in the solution.

[2] = Flow cytometric calcium permeabilization of phosphatidylcholine liposomes (Fluo-3/DiD); format: biochemical; conditions: 400 nm liposomes, Fluo-3, flow cytometer
Procedure: as §1

[3] = system: Aβ-induced apoptosis in the brain; conditions: cited from earlier work; for Aβ-induced apoptosis (TUNEL marker in the brain) / accumulation of Aβ immunoreactivity / amyloid: chronic Aβ infusion with simultaneous i.c.v. infusion of inhibitor
amyloid channels = amyloid channels (Homo sapiens, UniProt P05067); conditions: cited from earlier work
Sequence of amyloid channels (P05067 672-711): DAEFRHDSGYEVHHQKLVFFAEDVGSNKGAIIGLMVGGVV

[4] = cited from earlier work
[5] = system: 15 cells derived from pancreatic islets of Langerhans; conditions: cited from earlier work; for beta-amyloid-induced drop in cell viability: two cell lines, not specified
[6] = system: rat primary cortical cultures; conditions: MTT, different concentrations of Aβ; cited from earlier work
[7] = system: 15 cells derived from pancreatic islets of Langerhans; conditions: cited from earlier work; for amylin-induced drop in cell viability / cellular toxicity: pancreatic islet cell line
Aβ1-42 toxicity = conditions: Aβ1-42, Aksenov 1996; cited from earlier work
[8] = system: Aβ1-42-induced drop of cell survival; conditions: Tizon 2010; cited from earlier work
[9] = MTT, listed as al-anti-chymotrypsin

With C[C@H](CCC(=O)O)C[C@H](C)C[C@H](C)C(=O)/C=C(\O)[C@H](C)C[C@H](C)C/C=C/[C@@H](C)[C@@H](O)[C@@H](C)[C@@H](O)C[C@@H]1CC[C@@](C)([C@H]2CC[C@@](C)([C@@H](C)O)O2)O1 [ionomycin] the “permeabilization of negatively charged (phosphatidylserine) liposomes to calcium” value [1] was “permeabilizes liposomes” and the “permeabilization of neutral (phosphatidylcholine) liposomes to calcium” value [2] was “permeabilizes thousands of liposomes”.

In the case of CC(=O)N[C@@H](CC(C)C)C(=O)N[C@@H](CC(C)C)C(=O)N[C@H](C=O)CCCNC(=N)N [leupeptin], the “Aβ-induced apoptosis (TUNEL marker in the brain)” value ([3]; rats) is given as “promoted apoptosis”, the “accumulation of Aβ immunoreactivity / amyloid” value ([3]; rats) is given as “accumulation of extracellular and intracellular Aβ immunoreactivity” and the “apoptosis by the inhibitor itself (spontaneously occurring, TUNEL)” value ([3]; rats, inhibitor without Aβ) is given as “tends to increase apoptosis”.

For NC(CO)(CO)CO [tromethamine], the “blockade of smaller amyloid channels (<400 pS)” value (amyloid channels) is listed as “effectively blocked” and the “blockade of super-high conductance giant channels (>1 nS)” value (amyloid channels) is listed as “less effective”.

For Aβ1-42: full-length amyloid peptide, the “permeabilization of negatively charged (phosphatidylserine) liposomes to calcium” value [1] was “ineffective; also recorded: does not permeabilize liposomal membranes”.

For “Aβ22-35: longer beta-amyloid fragment without positive charge, non-channel-forming (EDVGSNKGAIIGLM; Amyloid-beta protein 42; UniProt P05067 693-706, looked up, fragment)”, the “permeabilization of negatively charged (phosphatidylserine) liposomes to calcium” value [1] was “does not create a noticeable number of channels; also recorded: does not permeabilize liposomes”.

For “Aβ25-35: positively charged short beta-amyloid fragment, channel-forming (GSNKGAIIGLM; Amyloid-beta protein 42; UniProt P05067 696-706, looked up, fragment)”, the “permeabilization of negatively charged (phosphatidylserine) liposomes to calcium” value [1] was “Membrane permeabilization occurs; also recorded: creates multiple liposomes permeable to calcium”, the “molecules of peptide out of which one channel is formed” value ([1]; model conditions) was “approximately 10^12 molecules” and the “permeabilization of neutral (phosphatidylcholine) liposomes to calcium” value [2] was “does not permeabilize liposomes; also recorded: not permeabilized”. The “share of channels with high conductance” value ([4]; acidic pH (pH 5.0), 20 μM peptide) was “more than 30%” and the “conductance of channels formed (upper value)” value ([4]; planar lipid bilayers) was “up to 1 nS”.

In the case of aprotinin, the “apoptosis by the inhibitor itself (spontaneously occurring, TUNEL)” value ([3]; rat, in vivo) is listed as “tends to decrease even spontaneously occurring apoptosis”, the “Aβ-induced apoptosis (TUNEL marker in the brain)” value ([3]; rats) is listed as “prevented Aβ-induced apoptosis” and the “accumulation of Aβ immunoreactivity / amyloid” value ([3]; rats) is listed as “did not exacerbate intracellular accumulation of amyloid”.

B1: α1-anti-chymotrypsin (protein, UniProt P01011 24-423, looked up)
Alpha-1-antichymotrypsin: HPNSPLDEENLTQENQDRGTHVDLGLASANVDFAFSLYKQLVLKAPDKNVIFSPLSISTALAFLSLGAHNTTLTEILKGLKFNLTETSEAEIHQSFQHLLRTLNQSSDELQLSMGNAMFVKEQLSLLDRFTEDAKRLYGSEAFATDFQDSAAAKKLINDYVKNGTRGKITDLIKDLDSQTMMVLVNYIFFKAKWEMPFDPQDTHQSRFYLSKKKWVMVPMMSLHHLTIPYFRDEELSCTVVELKYTGNASALFILPDQDKMEEVEAMLLPETLKRWRDSLEFREIGELYLPKFSISRDYNLNDILLQLGIEEAFTSKADLSGITGARNLAVSQVVHKAVLDVFEEGTEASAATAVKITLLSALVETRTIVRFNRPFLMIIVPTDTQNIFFMSKVTNPKQA
In the case of B1, the “optimal dose for inhibition of amyloid toxicity” value ([5]; 15 cells (IS cells), MTT, different concentrations of Aβ) is given as 10^−7 M, the “beta-amyloid-induced drop in cell viability” value ([5]; MTT) is given as “can protect against Aβ-induced drop in cell viability” and the “beta-amyloid-induced drop in cell viability” value [5, 9] is given as “prevented”. For the same molecule, the “effect of further increase of ACT concentration on protection against beta-amyloid” value ([5]; above optimal dose, bell-shaped dose-dependence) was “disappearance of protection; also recorded: bell-shaped dose-dependence of protection”, the “protection against beta-amyloid-induced drop in cell viability” value ([5]; in some conditions, cell line not specified (15 cells or rat primary cortical cultures), MTT) was 100% and the “optimal dose for inhibition of amyloid toxicity” value [6] was 10^−8 M. The “amylin-induced drop in cell viability / cellular toxicity” value ([7]; MTT) was “prevent amylin-induced cellular toxicity”, the “amylin-induced drop in cell viability / cellular toxicity” value [7, 9] was “prevented” and the protection against amylin ([7]; MTT) was < 100%. The “effect of further increase of ACT concentration on protection against amylin” value ([7]; above optimal dose) was “significantly decreased the protective effect” and the “effect on fibril formation” value (Aβ1-42 toxicity) was “without affecting fibril formation”.

B2: cystatin C (protein, UniProt P01034 27-146, looked up)
Cystatin-C: SSPGKPPRLVGGPMDASVEEEGVRRALDFAVGEYNKASNDMYHSRALQVVRARKQIVAGVNYFLDVELGRTTCTKTQPNLDNCPFHDQPHLKRKAFCSFQIYAVPWQGTMTLSKSTCQDA
In the case of B2, the “drop of cell survival induced by Aβ1-42” value [8] is listed as “prevented the drop of cell survival induced by Aβ1-42”.
